Test results: patent US20260061008A1, “METHODS OF INCREASING MESENCHYMAL STROMAL CELL BIOSYNTHESIS OF SPECIALIZED PRO-RESOLVING MEDIATORS AND METHODS OF USE” (University of Oregon, priority 2022, published 2026)

Experiments:
[1] = test system: OA progression; conditions: mice, repeated intra-articular injections into knee joints; cited from earlier work
[2] = test system: MSCs encapsulated in PEG-4MAL hydrogels; assay: RvD1 ELISA of media from MSCs encapsulated in PEG-4MAL hydrogels and treated with DHA; assay type: cell-based; conditions: 160 μM DHA, TCP and PEG-4MAL encapsulated MSCs
Procedure: MSCs were cultured in Tissue Culture Plastic (TCP) or encapsulated in PEG-4MAL hydrogels. The 20 kDa four-arm PEG-4MAL was sourced from Laysan Bio (Item #: 4arm-PEG-20K-5g). A solution of 4% w/v PEG in a 0.5 M (pH=7) MES buffer was prepared. The two peptides, RGD (GCGYGRGDSPG; SEQ ID NO: 1) for functionalization of the gel and VPM (GCRDVPMSMRGGDRCG; SEQ ID NO: 2) for crosslinking were also dissolved in the 0.5 M MES buffer. The hydrogels were prepared using a 2:1:1:1 volume ratio of PEG: RGD: cells/PBS: VPM. The 4% PEG translates to 2 mM in the hydrogel prepared from a 5 mM PEG stock solution. Based on the concentration of maleimides per PEG molecule (8 mM maleimide in 2 mM PEG-4MAL) the RGD concentration was 0.768 mM final concentration in the gel (from a 3.84 mM stock and accounting for ˜96% purity) and the VPM concentration required to cross-link the remaining maleimides in the PEG was 3.456 mM final in the gel (17.28 mM stock). […]
MSCs were treated with 160 μM DHA in the hydrogels in three different conditions. […] Samples of cell culture media were taken incrementally over a period of five days and Resolvin D1 levels were measured via ELISA assay. In addition, samples of the cell culture medium were taken 24 hours after treatment for each group and these samples were analyzed by LCMS (Wayne State University Lipidomics core facility).

Row | Compound | OA progression [1] | Duration of continued RvD1 production [2]
1 | CC/C=C\C[C@H](O)/C=C/C=C\C=C\C=C\[C@@H](O)[C@@H](O)C/C=C\CCC(=O)O [Resolvin D1] | attenuate OA progression | –
2 | CC/C=C\C/C=C\C/C=C\C/C=C\C/C=C\C/C=C\CCC(=O)O [DHA, docosahexaenoic acid] | – | at least 120 hours
